Target: Tyrosine-protein kinase JAK1 (Homo sapiens, UniProt P23458)
Experiment: Inhibition of JAK1 (unknown origin)

Tyrosine-protein kinase JAK1, sequence (P23458 whole entry): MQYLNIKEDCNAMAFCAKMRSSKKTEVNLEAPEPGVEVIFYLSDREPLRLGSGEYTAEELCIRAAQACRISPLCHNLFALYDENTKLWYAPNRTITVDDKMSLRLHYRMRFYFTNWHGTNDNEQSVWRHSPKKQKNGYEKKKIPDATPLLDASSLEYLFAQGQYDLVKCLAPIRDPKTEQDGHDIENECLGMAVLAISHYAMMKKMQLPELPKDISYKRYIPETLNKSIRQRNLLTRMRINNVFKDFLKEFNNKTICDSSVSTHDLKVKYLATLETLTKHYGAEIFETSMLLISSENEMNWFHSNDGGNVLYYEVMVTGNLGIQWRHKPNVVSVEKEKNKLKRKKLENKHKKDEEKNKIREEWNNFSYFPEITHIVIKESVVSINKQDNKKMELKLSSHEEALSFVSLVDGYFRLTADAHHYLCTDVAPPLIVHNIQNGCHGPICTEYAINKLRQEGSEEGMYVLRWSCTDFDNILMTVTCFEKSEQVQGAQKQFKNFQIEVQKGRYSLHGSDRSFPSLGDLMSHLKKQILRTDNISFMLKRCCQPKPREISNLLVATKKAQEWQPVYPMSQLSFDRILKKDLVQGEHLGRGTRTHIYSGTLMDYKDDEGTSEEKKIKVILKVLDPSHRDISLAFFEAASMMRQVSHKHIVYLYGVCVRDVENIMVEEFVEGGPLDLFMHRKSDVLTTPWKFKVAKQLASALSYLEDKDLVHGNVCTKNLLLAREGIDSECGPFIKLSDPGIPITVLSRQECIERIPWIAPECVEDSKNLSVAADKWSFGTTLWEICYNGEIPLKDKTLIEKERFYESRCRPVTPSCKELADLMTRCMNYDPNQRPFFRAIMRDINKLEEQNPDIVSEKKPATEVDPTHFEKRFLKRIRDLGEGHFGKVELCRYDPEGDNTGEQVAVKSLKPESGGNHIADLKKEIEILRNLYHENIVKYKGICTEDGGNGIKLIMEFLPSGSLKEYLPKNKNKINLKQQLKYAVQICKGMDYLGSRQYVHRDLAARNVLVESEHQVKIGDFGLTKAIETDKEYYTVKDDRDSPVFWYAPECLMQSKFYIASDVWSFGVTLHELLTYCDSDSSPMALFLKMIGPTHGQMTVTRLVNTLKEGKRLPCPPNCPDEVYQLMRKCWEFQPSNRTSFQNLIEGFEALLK

Compound	IC50
CCC1CN(C(=O)NCC(F)(F)F)CC1c1nc(N)nc2[nH]ccc12 (stereo not drawn)	9600 nM
CCC1CN(C(=O)NCC(F)(F)F)CC1N(C)c1ncnc2[nH]ccc12 (stereo not drawn)	930 nM
CCC1CN(C(=O)NCC(F)(F)F)CC1NCc1ccc(C)nc1-c1cnc2[nH]ccc2c1 (stereo not drawn)	500 nM

From BindingDB's records for doi:10.1021/acsmedchemlett.3c00041 (Insilico Medicine Hong Kong, 2023)
